Measured values as given in patent US10709676B2 (GENEHEAL BIOTECHNOLOGY CO., LTD., priority 2016, dated 2020).

Target: PAICS (Homo sapiens, UniProt P22234)
Settings: can reach; biochemical enzyme activity and cell biology experiments

Sequence of PAICS (P22234 whole entry): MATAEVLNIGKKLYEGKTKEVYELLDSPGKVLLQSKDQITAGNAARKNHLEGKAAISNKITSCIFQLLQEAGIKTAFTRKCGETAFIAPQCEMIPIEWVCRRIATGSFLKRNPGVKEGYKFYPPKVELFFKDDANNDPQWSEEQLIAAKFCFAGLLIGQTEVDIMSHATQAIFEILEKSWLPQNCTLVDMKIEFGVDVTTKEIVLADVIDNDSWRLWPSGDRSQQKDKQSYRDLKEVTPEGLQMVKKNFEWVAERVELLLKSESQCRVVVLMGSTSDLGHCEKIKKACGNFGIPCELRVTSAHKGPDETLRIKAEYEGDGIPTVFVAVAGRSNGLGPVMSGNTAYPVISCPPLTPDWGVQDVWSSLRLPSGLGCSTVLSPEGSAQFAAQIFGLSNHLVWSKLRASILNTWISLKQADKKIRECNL

- inhibition ratio against SAICAR accumulation: 71.1%
SMILES: NCCCNCCCCNCCCN [spermine, Spermine]
